{"source": "PubChem BioAssay AID1919009", "about": "(Molecular Pharmacology Branch, DTP, NCI, 2023);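 on viability, T/C: percent of DMSO vehicle-treated spheroid viability set as 100%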", "test_system": "K24384-001-R-PDC complex spheroid growth", "test": "Anticancer human tumor K24384-001-R-PDC patient-derived pancreatic adenocarcinoma cell line growth inhibition [AhR]", "conditions": "for IC50: curve of first compound; for viability, T/C: stronger effect = lower value", "outline": "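Spheroids combined tumor cells with HUVEC endothelial cells and human MSCs as stroma. AhR antagonists were paired with standard or investigational drugs, each dosed in half-log steps down from near clinical Cmax, or from 10 microM where Cmax was unknown.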", "data": [{"smiles": "Cn1ncnc1C1c2n[nH]c(=O)c3cc(F)cc(c23)NC1c1ccc(F)cc1", "note": "(stereo not given) + CC(CO)NC(=O)c1cc(-c2ccc(Cl)cc2)nn(-c2cnn(C)c2)c1=O", "values": [{"measurement": "IC50", "setting": "second compound 0.1 µM", "value": "> 100", "unit": "nM"}, {"measurement": "IC50", "setting": "second compound 0.316 µM", "value": "> 100", "unit": "nM"}, {"measurement": "IC50", "setting": "second compound 1 µM", "value": "> 100", "unit": "nM"}, {"measurement": "IC50", "setting": "second compound 3.16 µM", "value": "> 100", "unit": "nM"}, {"measurement": "IC50", "setting": "second compound 10 µM", "value": "> 100", "unit": "nM"}, {"measurement": "viability, T/C", "setting": "second compound 0.1 µM, first compound 0.000316 µM", "value": 101, "unit": "%"}, {"measurement": "viability, T/C", "setting": "second compound 0.1 µM, first compound 0.001 µM", "value": 99.9, "unit": "%"}, {"measurement": "viability, T/C", "setting": "second compound 0.1 µM, first compound 0.00316 µM", "value": 94, "unit": "%"}, {"measurement": "viability, T/C", "setting": "second compound 0.1 µM, first compound 0.01 µM", "value": 79.8, "unit": "%"}, {"measurement": "viability, T/C", "setting": "second compound 0.1 µM, first compound 0.0316 µM", "value": 82, "unit": "%"}, {"measurement": "viability, T/C", "setting": "second compound 0.1 µM, first compound 0.1 µM", "value": 69.5, "unit": "%"}, {"measurement": "viability, T/C", "setting": "second compound 0.316 µM, first compound 0.000316 µM", "value": 105, "unit": "%"}, {"measurement": "viability, T/C", "setting": "second compound 0.316 µM, first compound 0.001 µM", "value": 108, "unit": "%"}, {"measurement": "viability, T/C", "setting": "second compound 0.316 µM, first compound 0.00316 µM", "value": 90.4, "unit": "%"}, {"measurement": "viability, T/C", "setting": "second compound 0.316 µM, first compound 0.01 µM", "value": 80.8, "unit": "%"}, {"measurement": "viability, T/C", "setting": "second compound 0.316 µM, first compound 0.0316 µM", "value": 74.7, "unit": "%"}, {"measurement": "viability, T/C", "setting": "second compound 0.316 µM, first compound 0.1 µM", "value": 74.8, "unit": "%"}, {"measurement": "viability, T/C", "setting": "second compound 1 µM, first compound 0.000316 µM", "value": 95, "unit": "%"}, {"measurement": "viability, T/C", "setting": "second compound 1 µM, first compound 0.001 µM", "value": 105, "unit": "%"}, {"measurement": "viability, T/C", "setting": "second compound 1 µM, first compound 0.00316 µM", "value": 90.3, "unit": "%"}, {"measurement": "viability, T/C", "setting": "second compound 1 µM, first compound 0.01 µM", "value": 65.8, "unit": "%"}, {"measurement": "viability, T/C", "setting": "second compound 1 µM, first compound 0.0316 µM", "value": 76.6, "unit": "%"}, {"measurement": "viability, T/C", "setting": "second compound 1 µM, first compound 0.1 µM", "value": 72.4, "unit": "%"}, {"measurement": "viability, T/C", "setting": "second compound 3.16 µM, first compound 0.000316 µM", "value": 78.7, "unit": "%"}, {"measurement": "viability, T/C", "setting": "second compound 3.16 µM, first compound 0.001 µM", "value": 74.4, "unit": "%"}, {"measurement": "viability, T/C", "setting": "second compound 3.16 µM, first compound 0.00316 µM", "value": 81.2, "unit": "%"}, {"measurement": "viability, T/C", "setting": "second compound 3.16 µM, first compound 0.01 µM", "value": 69.9, "unit": "%"}, {"measurement": "viability, T/C", "setting": "second compound 3.16 µM, first compound 0.0316 µM", "value": 61.8, "unit": "%"}, {"measurement": "viability, T/C", "setting": "second compound 3.16 µM, first compound 0.1 µM", "value": 62.8, "unit": "%"}, {"measurement": "viability, T/C", "setting": "second compound 10 µM, first compound 0.000316 µM", "value": 66.3, "unit": "%"}, {"measurement": "viability, T/C", "setting": "second compound 10 µM, first compound 0.001 µM", "value": 67.8, "unit": "%"}, {"measurement": "viability, T/C", "setting": "second compound 10 µM, first compound 0.00316 µM", "value": 67.8, "unit": "%"}, {"measurement": "viability, T/C", "setting": "second compound 10 µM, first compound 0.01 µM", "value": 66.1, "unit": "%"}, {"measurement": "viability, T/C", "setting": "second compound 10 µM, first compound 0.0316 µM", "value": 63.3, "unit": "%"}, {"measurement": "viability, T/C", "setting": "second compound 10 µM, first compound 0.1 µM", "value": 54.1, "unit": "%"}]}]}
